Values belong to the compound of their own block, whether it stands above or below them. Where a SMILES comes first, the peptide text is derived from it. Where no end group is shown, it is not given here. [ ]: non-standard residue; d: D form.
Legend:
[1] = system: adult rat cardiac fibroblasts; assay: Cardiac fibroblast proliferation, cell count in Neubauer chamber; format: cell-based; conditions: DMEM F-12 5% FBS, 24 h, trypan blue cell count
Protocol: Male Sprague-Dawley rats (250-300 g) were anesthetized with ketamine-xylazine (66 and 1.6 mg/kg i.p., respectively). Adult rat cardiac fibroblasts were isolated by retrograde aortic perfusion. Briefly, hearts were digested with collagenase type B solution for 1 h, and cells were centrifuged at 500 rpm for 2 min. The supernatant, mainly adult rat cardiac fibroblasts, was centrifuged at 1000 rpm for 10 min, resuspended in Dulbecco's Modified Eagle Medium: Nutrient Mixture F-12 (DMEM F-12) plus 15% fetal bovine serum (FBS) and then seeded in nontreated culture dishes during 3 h. Cells were washed with phosphate buffered saline to eliminate debris and nonadherent cells. Adult rat cardiac fibroblasts were used at passage one and seeded on 60 mm cell culture dishes in DMEM F-12 plus 10% FBS and incubated at […] for 3 h. To synchronize cells, they were washed and incubated in DMEM F-12 (without serum, 0% FBS) for 24 h before experimentation. Cell proliferation was determined in cardiac fibroblasts incubated for 24 h with and without retro-inverse angiotensin-(1-9) in DMEM F-12 5% FBS. Cells were trypsinized and cell number was determined using trypan blue method in a Neubauer chamber.

[2] = Stability in human serum determined by HPLC; format: in vitro ADME; conditions: 37° C.
Protocol: The retro-inverse peptides were dissolved in PBS to obtain a final concentration of 1 mM. From this stock, an aliquot of 50 μL was taken and diluted to 450 μL of human serum (Sigma Aldrich from human male AB plasma, USA origin, sterile-filtered) at 37° C. under agitation, to obtain an initial concentration of […] and incubated for 48 h. Aliquots of 50 μL were extracted at 0, 5, 10 min and 1, 3, 6, 24 and 48 h and added to 200 μL of methanol at 4° C. for 30 min to precipitate serum proteins. The samples were then centrifuged at 13,000 g in Hermle Cooling Centrifuge Z 326 K 311.00 V01 at 4° C. for 30 min. The supernatants (approximately 200 μL) were obtained, placed in vials, and then analyzed by HPLC. All analyzes were performed on the Perkin Elmer auto sampler flexo HPLC, using a reverse phase 4.6×100 mm column with a particle size of […] (Waters XBridge Peptide BEH C18 Column). Mobile phase A was 100% acetonitrile and phase B was TFA 0.0004% in Milli-Q water. The initial composition of eluent was 5% A and 95% B for 1 min and then a linear gradient to reach 100% A in 19 min and then return to the initial composition in 4 min, with a total run time of 25 min. The eluent flow was 0.9 mL/min and the temperature of the column was adjusted to 26° C. L measurement was performed at a UV signal of 220 nm wavelength. Where 50 μL was injected per sample. Peptides were identified based on their retention time in the respective chromatogram obtained in the Chromera-HPLC flexar program.

[3] = system: cardiac myocytes isolated from neonatal Sprague-Dawley rat ventricles; assay: Norepinephrine-induced cardiomyocyte hypertrophy, western blot of β-MHC and ANP; format: cell-based; conditions: 1, 10 or 100 μM peptide, 10 μM norepinephrine
Protocol: Cardiac myocytes were isolated from neonatal Sprague-Dawley rat ventricles. Cardiac myocytes were plated at 70% final density in gelatin-coated wells (12-well plates) or in 60-mm Petri dishes and maintained at 37° C. in a humidified atmosphere of 5% CO2/95% air for 24 h in Dulbecco's Modified Eagle's medium [(DMEM)/M199](4:1) containing 10% fetal bovine serum and 5% fetal calf serum. Serum was withdrawn 24 h before preincubation with 1, 10 or 100 μM retro-inverse angiotensin-(1-9) for 1 h; then, 10 μM norepinephrine (Sigma, St Louis, Missouri, USA) were added and the cultures were incubated for 24 h. Then cells were washed with PBS at 4° C. and then cells were lysed with 50 μL of RIPA lysis buffer (Tris-HCl 10 mM pH 7.4, EDTA 5 mM, NaCl 50 mM, deoxycholic acid 1%, Triton X-100 1% v/v) supplemented with phosphatase and protease inhibitors (Roche). After centrifugation at 12,000 r.p.m. for 15 min at 4° C., the supernatat was recovered; total protein content was determined by using Bradford (BioRad protein assay, BioRad, Hercules, CA, USA). Proteins were denatured in SDS-PAGE 4× buffer and resolved in 12% PAGE-SDS. After electrotransference, beta-myosin heavy chain (β-MHC) and atrial natriuretic peptide (ANP) were used as hypertrophic markers. β-tubulin was used as loading control. As expected, norepinephrine 10 μM for […], a cardiomyocyte hypertrophy inducer, triggered β-MHC and ANP increase (FIG. 3).

Compound: O=c1[nH]c(=O)n([C@H]2C[C@H](O)[C@@H](CO)O2)cc1Br [bromodeoxyuridine, reference compound]
fibroblast proliferation [1]: comparable to bromodeoxyuridine

degradation after incubation with human serum ([2]; 24 h incubation): no significant degradation
Compound: CC[C@@H](C)[C@@H](NC(=O)[C@@H](Cc1c[nH]cn1)NC(=O)[C@H]1CCCN1C(=O)[C@@H](Cc1ccccc1)NC(=O)[C@H](N)Cc1c[nH]cn1)C(=O)N[C@H](Cc1ccc(O)cc1)C(=O)N[C@@H](C(=O)N[C@H](CCCNC(=N)N)C(=O)N[C@H](CC(=O)O)C(N)=O)C(C)C [retro-inverse angiotensin-(1-9) amide, ^DH^DF^DP^DH^DI^DY^DV^DR^DD-CONH2] (H-[dH][dF][dP][dH][dI][dY][dV][dR][dD]-NH2)
increase of ANP induced by norepinephrine [3]: blocked

degradation after incubation with human serum ([2]; 3 h incubation): completely degraded
Compound: DRVYIHPFH [angiotensin-(1-9), Asp-Arg-Val-Tyr-Ile-His-Pro-Phe-His]

— US20250206779A1, “ANGIOTENSIN-(1-9) ANALOGUE BASED ON D AMINO ACIDS, PHARMACEUTICAL COMPOSITIONS AND USES THEREOF” (UNIVERSIDAD DE CHILE, priority 2021, published 2025)
